Laboratory results taken from ChEMBL document CHEMBL5620433, “Design and synthesis of new 1,2,3-triazoles derived from eugenol and analogues with in vitro and in vivo activity against Trypanosoma cruzi” (Eur J Med Chem, 2023).
Active and inactive are the calls of the source. The calls are words filed in the database; no cut-off is given here.

Experiments:
Trypanosoma cruzi [1] = experiment: Anti-trypanosomal activity against epimastigote form of Trypanosoma cruzi by resazurin microtiter assay; format: functional, organism-based
Trypanosoma cruzi [2] = experiment: Anti-trypanosomal activity against trypomastigote form of Trypanosoma cruzi Y infected in mouse assessed as reduction in parasitemia at 100 mg/kg, po for 7 days; format: functional; details: 168 h, time 7 day
Trypanosoma cruzi [3] = experiment: Antitrypanosomal activity against epimastigote form of Trypanosoma cruzi Y assessed as inhibition of parasite proliferation incubated for 72 hrs by resazurin dye based analysis; format: functional, organism-based
[4] = target: Cruzipain (Trypanosoma cruzi) (UniProt P25779); experiment: Inhibition of recombinant Trypanosoma cruzi Cruzain using Z-FR-AMC as substrate at 100 uM measured for 5 mins by fluorescence based analysis
Chain of Cruzipain (Trypanosoma cruzi) (P25779 123-467 limits assumed): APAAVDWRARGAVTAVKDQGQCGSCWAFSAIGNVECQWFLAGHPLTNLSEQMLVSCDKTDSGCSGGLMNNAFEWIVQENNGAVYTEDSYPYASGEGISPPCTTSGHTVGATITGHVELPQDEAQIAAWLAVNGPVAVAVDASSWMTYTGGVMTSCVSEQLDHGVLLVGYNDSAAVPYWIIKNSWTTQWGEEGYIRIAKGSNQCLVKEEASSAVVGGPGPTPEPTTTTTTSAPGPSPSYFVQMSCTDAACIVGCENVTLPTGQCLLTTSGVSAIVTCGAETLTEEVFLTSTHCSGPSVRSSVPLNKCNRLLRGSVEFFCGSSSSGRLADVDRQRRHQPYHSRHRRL

[5] = Selectivity index, ratio of CC50 for cytotoxicity against rat H9c2 cells to IC50 for antitrypanosomal activity against epimastigote form of Trypanosoma cruzi Y; format: toxicity, cell-based; details: read-out: Ratio IC50
[6] = (§1) Cytotoxicity against rat H9c2 cells assessed as reduction in cell viability measured after 72 hrs by resazurin due based analysis; format: toxicity; details: rat, H9c2 cells
[7] = target: Cruzipain (Trypanosoma cruzi) (UniProt P25779); experiment: Inhibition of recombinant Trypanosoma cruzi Cruzain using Z-FR-AMC as substrate at 100 uM preincubated with enzyme for 10 mins and measured for 5 mins by fluorescence based analysis; details: time 15.0 min
Trypanosoma cruzi [8] = experiment: Antitrypanosomal activity against trypomastigote form of Trypanosoma cruzi Y assessed as inhibition of parasite viability incubated for 24 hrs by light microscopy; format: functional, organism-based
Mus musculus [9] = experiment: Reduction in plasma total IgG level in Swiss mouse infected with trypomastigote form of Trypanosoma cruzi Y at 100 mg/kg, po administered via gavage for 7 days from day 5 post-infection by ELISA; format: functional, organism-based; details: time 7.0 day
Trypanosoma cruzi [10] = experiment: Anti-trypanosomal activity against trypomastigote form of Trypanosoma cruzi Y infected in Swiss mouse assessed as reduction in parasitemia at 100 mg/kg, po administered via gavage for 2 days from day 5 post-infection; format: functional; details: 48 h, time 2 day
Mus musculus [11] = experiment: Reduction in plasma IgG2 level in Swiss mouse infected with trypomastigote form of Trypanosoma cruzi Y at 100 mg/kg, po administered via gavage for 7 days from day 5 post-infection by ELISA; format: functional, organism-based; details: time 7.0 day
Mus musculus [12] = experiment: Reduction in plasma IgG1 level in Swiss mouse infected with trypomastigote form of Trypanosoma cruzi Y at 100 mg/kg, po administered via gavage for 7 days from day 5 post-infection by ELISA; format: functional, organism-based; details: time 7.0 day
H9c2 = experiment: as §1; format: toxicity; details: h9c2
[13] = Toxicity in po dosed Swiss mouse infected with trypomastigote form of Trypanosoma cruzi Y assessed as diarrhea administered via gavage for 7 days from day 5 post-infection and measured on day 13 post-infection; format: organism-based; details: in vivo, 192 h, time 8 day
Mus musculus [14] = experiment: Reduction in plasma IgG1 level in Swiss mouse infected with trypomastigote form of Trypanosoma cruzi Y at 10 to 50 mg/kg, po administered via gavage for 7 days from day 5 post-infection by ELISA; format: functional, organism-based; details: dose 10-50 mg/kg, time 7.0 day
[15] = Toxicity in Swiss mouse infected with trypomastigote form of Trypanosoma cruzi Y assessed as increase in weight gain at 10 to 100 mg/kg, po administered via gavage for 7 days from day 5 post-infection; format: organism-based; details: in vivo, 168 h, dose 10-100 mg/kg, time 7 day
[16] = Toxicity in po dosed Swiss mouse infected with trypomastigote form of Trypanosoma cruzi Y assessed as fur alteration administered via gavage for 7 days from day 5 post-infection and measured on day 13 post-infection; format: organism-based; details: in vivo, 192 h, time 8 day
[17] = Genotoxicity in rat H9c2 cells assessed as induction of DNA damage at 10 uM incubated for 72 hrs by gel electrophoresis analysis; format: toxicity, cell-based; details: h9c2, 72 h
[18] = Toxicity in Swiss mouse infected with trypomastigote form of Trypanosoma cruzi Y assessed as collateral effects at 10 to 100 mg/kg, po administered via gavage for 7 days from day 5 post-infection; format: organism-based; details: in vivo, 168 h, dose 10-100 mg/kg, time 7 day
[19] = Hepatotoxicity in Swiss mouse infected with trypomastigote form of Trypanosoma cruzi Y assessed as plasma aspartate aminotransferase level at 50 to 100 mg/kg, po administered via gavage for 7 days from day 5 post-infection by spectrophotometry; format: toxicity, organism-based; details: in vivo, 168 h, dose 50-100 mg/kg, time 7 day
Mus musculus [20] = experiment: Reduction in cardiac inflammation in Swiss mouse infected with trypomastigote form of Trypanosoma cruzi Y assessed as reduction in inflammatory nuclei at 10 to 100 mg/kg, po administered via gavage for 7 days from day 5 post-infection by Hematoxylin-Eosin staining based microscopy; format: functional, organism-based; details: dose 10-100 mg/kg, time 7.0 day
Mus musculus [21] = experiment: Reduction in plasma IgG2 level in Swiss mouse infected with trypomastigote form of Trypanosoma cruzi Y at 10 to 50 mg/kg, po administered via gavage for 7 days from day 5 post-infection by ELISA; format: functional, organism-based; details: dose 10-50 mg/kg, time 7.0 day
[22] = Toxicity in po dosed Swiss mouse infected with trypomastigote form of Trypanosoma cruzi Y assessed as mortality administered via gavage for 7 days from day 5 post-infection and measured on day 13 post-infection; format: organism-based; details: in vivo, 192 h, time 8 day
Trypanosoma cruzi [23] = experiment: Anti-trypanosomal activity against trypomastigote form of Trypanosoma cruzi Y infected in Swiss mouse assessed as reduction in parasitemia at 100 mg/kg, po administered via gavage for 7 days from day 5 post-infection; format: functional; details: 168 h, time 7 day
Mus musculus [24] = experiment: Reduction in plasma total IgG level in Swiss mouse infected with trypomastigote form of Trypanosoma cruzi Y at 10 to 50 mg/kg, po administered via gavage for 7 days from day 5 post-infection by ELISA; format: functional, organism-based; details: dose 10-50 mg/kg, time 7.0 day
Trypanosoma cruzi [25] = experiment: Anti-trypanosomal activity against trypomastigote form of Trypanosoma cruzi Y infected in Swiss mouse assessed as reduction in parasitemia at 50 mg/kg, po administered via gavage for 7 days from day 5 post-infection; format: functional, organism-based; details: time 7.0 day
[26] = Toxicity in po dosed Swiss mouse infected with trypomastigote form of Trypanosoma cruzi Y assessed as apathy administered via gavage for 7 days from day 5 post-infection and measured on day 13 post-infection; format: organism-based; details: in vivo, 192 h, time 8 day
[27] = Hepatotoxicity in Swiss mouse infected with trypomastigote form of Trypanosoma cruzi Y assessed as plasma alanine aminotransferase level at 50 to 100 mg/kg, po administered via gavage for 7 days from day 5 post-infection by spectrophotometry; format: toxicity, organism-based; details: in vivo, 168 h, dose 50-100 mg/kg, time 7 day

`CCCc1ccc(OCC(O)Cn2cc(-c3ccccc3)nn2)c(OC)c1` (racemic) showed an IC50 (Trypanosoma cruzi [1]) of 42.8 µM, an inhibition in vivo at 100 mg/kg (Trypanosoma cruzi [2]) of 50% and an IC50 (Trypanosoma cruzi [3]) of 53.7 µM. It also gave an inhibition [4] of 17%, a selectivity ratio [5] of 0.3 and an IC50 at 72 h [6] of 16.8 µM. It also gave an inhibition [7] of 17%.

Work on `COc1ccccc1OCC(O)Cn1cc(-c2ccccc2)nn1` (racemic) yielded an IC50 (Trypanosoma cruzi [3]) of 126 µM, an inhibition [4] of 7.2% and a selectivity ratio [5] of 3.3. It also gave an IC50 at 72 h [6] of 422 µM and an inhibition [7] of 7.2%.

`COc1ccccc1OCC(O)Cn1cc(COc2ccccc2)nn1` (racemic) gave an IC50 (Trypanosoma cruzi [3]) of 112 µM, an inhibition [4] of 7.2% and a selectivity ratio [5] of 3.8. It also gave an IC50 at 72 h [6] of 437 µM and an inhibition [7] of 7.2%.

With `CCCc1ccc(OCC(O)Cn2cc(COc3ccccc3)nn2)c(OC)c1` (racemic) the IC50 (Trypanosoma cruzi [3]) was 75.8 µM, the inhibition [4] was 7.2% and the selectivity ratio [5] was 2.7. The IC50 at 72 h [6] was 211 µM and the inhibition [7] was 7.2%.

In the case of `O=C(Cn1ccnc1[N+](=O)[O-])NCc1ccccc1` [BENZNIDAZOLE], the IC50 (Trypanosoma cruzi [8]) is reported as 12.7 µM, the inhibition (Mus musculus [9]) is reported as “Active” and the inhibition in vivo at 100 mg/kg (Trypanosoma cruzi [10]) is reported as 100%. The IC50 (Trypanosoma cruzi [3]) was 21.5 µM, the inhibition (Mus musculus [11]) was “Active” and the selectivity ratio [5] was 78.4. The inhibition (Mus musculus [12]) was “Active” and the IC50 (H9c2) was 1690 µM.

With `COc1ccc(OCc2cn(CC(O)COc3ccccc3OC)nn2)cc1` (racemic) the IC50 (Trypanosoma cruzi [3]) was 113 µM, the inhibition [4] was 7.2% and the selectivity ratio [5] was 4.1. It also gave an IC50 at 72 h [6] of 469 µM and an inhibition [7] of 7.2%.

In the case of `CCCc1ccc(OCC(Cn2cc(-c3ccccc3)nn2)OCc2ccccc2)c(OC)c1` (racemic), the IC50 (Trypanosoma cruzi [3]) is reported as 335 µM, the inhibition [4] is reported as 7.2% and the selectivity ratio [5] is reported as over 1.1. It also gave an IC50 at 72 h [6] of over 400 µM and an inhibition [7] of 7.2%.

`C=CCc1ccc(OCC(O)Cn2cc(COc3ccccc3)nn2)c(OC)c1` (racemic) showed an IC50 (Trypanosoma cruzi [3]) of 256 µM, an inhibition [4] of 7.2% and a selectivity ratio [5] of 1.6. The IC50 at 72 h [6] was 410 µM and the inhibition [7] was 7.2%.

Work on `CCCc1ccc(OCC(Cn2cc(-c3ccccc3)nn2)OC)c(OC)c1` (racemic) yielded an IC50 (Trypanosoma cruzi [3]) of 198 µM, an inhibition [4] of 7.2% and a selectivity ratio [5] of 2.8. For the same molecule, the IC50 at 72 h [6] was 555 µM and the inhibition [7] was 7.2%.

Work on `COc1ccccc1OCC(O)Cn1cc(COc2ccc(C(C)C)cc2)nn1` (racemic) yielded an IC50 (Trypanosoma cruzi [3]) of 64.3 µM, an inhibition [4] of 7.2% and an inhibition [7] of 7.2%.

In the case of `CCCc1ccc(OCC(O)Cn2cc(COc3ccc([N+](=O)[O-])cc3)nn2)c(OC)c1` (racemic), the IC50 (Trypanosoma cruzi [8]) is reported as 8.41 µM, the Activity [13] is reported as “Non-Toxic” and the inhibition (Mus musculus [14]) is reported as “inactive”. The inhibition (Mus musculus [9]) was “Active”, the Activity [15] was “Toxic” and the Activity [16] was “Non-Toxic”. For the same molecule, the Activity [17] was “Non-Toxic”, the Activity [18] was “Non-Toxic” and the Activity [19] was “Non-Toxic”. For the same molecule, the inhibition (Mus musculus [20]) was “Active”, the IC50 (Trypanosoma cruzi [3]) was 7.3 µM and the inhibition (Mus musculus [11]) was “Active”. For the same molecule, the inhibition (Mus musculus [21]) was “inactive”, the inhibition [4] was 24% and the selectivity ratio [5] was 77.6. The inhibition (Mus musculus [12]) was “Active”, the Activity [22] was “Non-Toxic” and the IC50 at 72 h [6] was 568 µM. For the same molecule, the inhibition in vivo at 100 mg/kg (Trypanosoma cruzi [23]) was 99.4%, the inhibition (Mus musculus [24]) was “inactive” and the Activity (Trypanosoma cruzi [25]) was “Active”. For the same molecule, the Activity [26] was “Non-Toxic”, the Activity [27] was “Non-Toxic” and the inhibition [7] was 24%.
